Patent US10508104B2, “6-hydroxy-5-(phenyl/heteroarylsulfonyl)pyrimidin-4(1H)-one as APJ agonists” (Bristol-Myers Squibb Company, priority 2016, dated 2019)

Molecular target: human APJ receptor (Homo sapiens (Human), UniProt P35414)
Assay: Intracellular cAMP accumulation assay (APJ hcAMP, HTRF)
Assay type: cell-based
Details: HEK293 cells stably expressing human APJ receptor; inhibition of forskolin-mediated cAMP production; read-out: Human APJ cAMP EC50 Potency range
In short: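 HEK293 cells stably expressing human APJ, 5,000 per well, incubated 30 min at rt with compound, […] and 2 μM forskolin. cAMP measured by HTRF against a cAMP standard curve as inhibition of forskolin-driven production. EC50 from variable-slope sigmoidal fit.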

Chain of human APJ receptor (P35414 whole entry): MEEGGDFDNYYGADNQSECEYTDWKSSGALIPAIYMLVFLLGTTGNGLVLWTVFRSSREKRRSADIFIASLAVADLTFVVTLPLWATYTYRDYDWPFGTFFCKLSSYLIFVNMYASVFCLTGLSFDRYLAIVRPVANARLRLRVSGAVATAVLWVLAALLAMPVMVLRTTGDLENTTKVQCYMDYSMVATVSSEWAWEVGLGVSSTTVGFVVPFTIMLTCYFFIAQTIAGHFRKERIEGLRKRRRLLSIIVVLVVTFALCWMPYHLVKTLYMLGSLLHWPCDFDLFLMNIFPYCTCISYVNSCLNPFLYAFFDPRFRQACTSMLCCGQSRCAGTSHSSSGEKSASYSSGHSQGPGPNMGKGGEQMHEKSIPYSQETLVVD

Row | Structure (SMILES) | EC50
1 | CCOCc1nc(=O)c(S(=O)(=O)c2ccc(C(C)(C)C)cc2)c(O)n1-c1c(CC)cccc1CC [Example 361, 5-(4-tert-butylbenzenesulfonyl)-1-(2,6-diethylphenyl)-2-(ethoxymethyl)-6-hydroxy-1,4-dihydropyrimidin-4-one] | 0.01 to 10 nM
2 | CCCCc1nc(=O)c(S(=O)(=O)c2ccc(-c3ccnc(F)c3C)cc2)c(O)n1[C@H](c1cccc(C#N)c1)C(C)C [Example 451, 3-[(1S)-1-{2-butyl-5-[4-(2-fluoro-3-methylpyridin-4-yl)benzenesulfonyl]-6-hydroxy-4-oxo-1,4-dihydropyrimidin-1-yl}-2-methylpropyl]benzonitrile] | 0.01 to 10 nM
3 | CCCCc1nc(=O)c(S(=O)(=O)c2ccc(-c3ccc(C(N)=O)cc3F)cc2)c(O)n1[C@@H](CC)c1cccc(C#N)c1 [Example 525, 4′-({2-butyl-1-[(1S)-1-(3-cyanophenyl)propyl]-6-hydroxy-4-oxo-1,4-dihydropyrimidin-5-yl}sulfonyl)-2-fluoro-[1,1′-biphenyl]-4-carboxamide] | 0.01 to 10 nM
4 | Cn1cccc(-c2ccc(S(=O)(=O)c3c(O)n([C@H](c4cccc(C#N)c4)C4CC4)c(CC4CC4)nc3=O)cc2)c1=O [Example 490, 3-[(S)-cyclopropyl[2-(cyclopropylmethyl)-6-hydroxy-5-[4-(1-methyl-2-oxo-1,2-dihydropyridin-3-yl)benzenesulfonyl]-4-oxo-1,4-dihydropyrimidin-1-yl]methyl]benzonitrile] | 0.01 to 10 nM
5 | CCCCc1nc(=O)c(S(=O)(=O)c2ccc(Br)cn2)c(O)n1-c1c(OC)cccc1OC [Example 98, 5-((5-Bromopyridin-2-yl)sulfonyl)-2-butyl-1-(2,6-dimethoxyphenyl)-6-hydroxypyrimidin-4(1H)-one] | 0.01 to 10 nM
6 | CC(C)OCc1nc(=O)c(S(=O)(=O)c2ccc(-c3ccccc3C(N)=O)cc2)c(O)n1[C@H](c1cccc(C#N)c1)C1CC1 [Example 418, 4′-({1-[(S)-(3-cyanophenyl)(cyclopropyl)methyl]-6-hydroxy-4-oxo-2-[(propan-2-yloxy)methyl]-1,4-dihydropyrimidin-5-yl}sulfonyl)-[1,1′-biphenyl]-2-carboxamide] | 0.01 to 10 nM
7 | COC[C@@H](c1ccccc1)n1c(COC(C)C)nc(=O)c(S(=O)(=O)c2ccc(-c3ccncc3C#N)cc2)c1O [Example 406, 4-[4-({6-hydroxy-1-[(1R)-2-methoxy-1-phenylethyl]-4-oxo-2-[(propan-2-yloxy)methyl]-1,4-dihydropyrimidin-5-yl}sulfonyl)phenyl]pyridine-3-carbonitrile] | 0.01 to 10 nM
8 | CC(C)OCc1nc(=O)c(S(=O)(=O)c2ccc(-c3ccncc3C#N)cc2)c(O)n1[C@H](c1cccc(C#N)c1)C1CC1 [Example 416, 4-[4-({1-[(S)-(3-cyanophenyl)(cyclopropyl)methyl]-6-hydroxy-4-oxo-2-[(propan-2-yloxy)methyl]-1,4-dihydropyrimidin-5-yl}sulfonyl)phenyl]pyridine-3-carbonitrile] | 0.01 to 10 nM
9 | CCCCc1nc(=O)c(S(=O)(=O)c2ccc(-c3ccncc3C)cc2)c(O)n1[C@H](c1cccc(C#N)c1)C(C)C [Example 447, 3-[(1S)-1-{2-butyl-6-hydroxy-5-[4-(3-methylpyridin-4-yl)benzenesulfonyl]-4-oxo-1,4-dihydropyrimidin-1-yl}-2-methylpropyl]benzonitrile] | 0.01 to 10 nM
10 | CCCCc1nc(=O)c(S(=O)(=O)c2ccc(-c3ccnc(F)c3C)cc2)c(O)n1[C@@H](CC)c1cc(F)cc(F)c1 [Example 446, 2-butyl-1-[(1S)-1-(3,5-difluorophenyl)propyl]-5-[4-(2-fluoro-3-methylpyridin-4-yl)benzenesulfonyl]-6-hydroxy-1,4-dihydropyrimidin-4-one] | 0.01 to 10 nM
11 | CCCCc1nc(=O)c(S(=O)(=O)c2ccc(-c3cccc(F)c3C(N)=O)cc2)c(O)n1[C@@H](CC)c1cccc(C#N)c1 [Example 538, 4′-({2-butyl-1-[(1S)-1-(3-cyanophenyl)propyl]-6-hydroxy-4-oxo-1,4-dihydropyrimidin-5-yl}sulfonyl)-3-fluoro-[1,1′-biphenyl]-2-carboxamide] | 0.01 to 10 nM
12 | CNC(=O)c1ccccc1-c1ccc(S(=O)(=O)c2c(O)n([C@H](c3cccc(C#N)c3)C3CC3)c(COC(C)C)nc2=O)cc1 [Example 420, 4′-({1-[(S)-(3-cyanophenyl)(cyclopropyl)methyl]-6-hydroxy-4-oxo-2-[(propan-2-yloxy)methyl]-1,4-dihydropyrinudin-5-yl}sulfonyl)-N-methyl-[1,1′-biphenyl]-2-carboxamide] | 0.01 to 10 nM

Same assay, conditions: human APJ, cAMP accumulation; read-out: Human APJ cAMP EC50 Potency range

Row | Structure (SMILES) | EC50
13 | COC[C@@H](c1ccccc1)n1c(COC(C)C)nc(=O)c(S(=O)(=O)c2ccc(-c3ccncc3C)cc2)c1O [Example 329, 6-hydroxy-1-[(1R)-2-methoxy-1-phenylethyl]-5-[4-(3-methylpyridin-4-yl)benzenesulfonyl]-2-[(propan-2-yloxy)methyl]-1,4-dihydropyrimidin-4-one] | 0.01 to 10 nM
14 | CCOCc1nc(=O)c(S(=O)(=O)c2ccc(-c3ccncc3C)cc2)c(O)n1[C@@H](COC)c1ccccc1 [Example 315, 2-(ethoxymethyl)-6-hydroxy-1-[(1R)-2-methoxy-1-phenylethyl]-5-[4-(3-methylpyridin-4-yl)benzenesulfonyl]-1,4-dihydropyrimidin-4-one] | 0.01 to 10 nM
15 | CCOCc1nc(=O)c(S(=O)(=O)c2ccc(-c3ccc(F)nc3C)c(F)c2)c(O)n1[C@@H](COC)c1ccccc1 [Example 339, 2-(ethoxymethyl)-5-[3-fluoro-4-(6-fluoro-2-methylpyridin-3-yl)benzenesulfonyl]-6-hydroxy-1-[(1R)-2-methoxy-1-phenylethyl]-1,4-dihydropyrimidin-4-one] | 0.01 to 10 nM
16 | CCOCc1nc(=O)c(S(=O)(=O)c2ccc(-c3ccc(F)nc3)cc2)c(O)n1[C@@H](COC)c1ccccc1 [Example 317, 2-(ethoxymethyl)-5-[4 (6-fluoropyridin-3-yl)benzenesulfonyl]-6-hydroxy-1-[(1R)-2-methoxy-1-phenylethyl]-1,4-dihydropyrimidin-4-one] | 10 to 100 nM

Same assay, conditions: human APJ, intracellular cAMP accumulation; read-out: Human APJ cAMP EC50 Potency range

Row | Structure (SMILES) | EC50
17 | CCCCc1nc(=O)c(S(=O)(=O)c2ccc(-c3ccc(F)nc3)cc2)c(O)n1[C@H]1CCc2ccccc21 [Example 163, 2-butyl-1-[(1S)-2,3-dihydro-1H-inden-1-yl]-5-[4-(6-fluoropyridin-3-yl)benzenesulfonyl]-6-hydroxy-1,4-dihydropyrimidin-4-one] | 0.01 to 10 nM
18 | CCCCc1nc(=O)c(S(=O)(=O)c2ccc(-c3ccccc3COC)cc2)c(O)n1-c1c(OC)cccc1OC [Example 49, 2-butyl-1-(2,6-dimethoxyphenyl)-6-hydroxy-5-{4-[2-(methoxymethyl)phenyl]benzenesulfonyl}-1,4-dihydropyrimidin-4-one] | 0.01 to 10 nM
19 | CCCCc1nc(=O)c(S(=O)(=O)c2ccc(-c3ccnc(C)c3)cc2)c(O)n1[C@H]1CCc2ccccc21 [Example 156, 2-butyl-1-[(1S)-2,3-dihydro-1H-inden-1-yl]-6-hydroxy-5-[4-(2-methylpyridin-4-yl)benzenesulfonyl]-1,4-dihydropyrimidin-4-one] | 100 to 300 nM
20 | COc1cccc(OC)c1-n1c(CCC(C)C)nc(=O)c(S(=O)(=O)c2ccc(-c3ccc(F)cc3)cc2)c1O [Example 12, 1-(2,6-dimethoxyphenyl)-5-[4-(4-fluorophenyl)benzene-sulfonyl]-6-hydroxy-2-(3-methylbutyl)-1,4-dihydropyrimidin-4-one] | 0.01 to 10 nM
21 | COc1cccc(OC)c1-n1c(CCC(C)C)nc(=O)c(S(=O)(=O)c2ccc(-c3ccc(Cl)cc3)cc2)c1O [Example 14, 5-[4-(4-chlorophenyl)benzene-sulfonyl]-1-(2,6-dimethoxyphenyl)-6-hydroxy-2-(3-methylbutyl)-1,4-dihydropyrimidin-4-one] | 0.01 to 10 nM
22 | CCCCc1nc(=O)c(S(=O)(=O)c2ccc(-c3ccnc(F)c3C)cc2)c(O)n1C(c1ccccc1)C1CC1 (stereo not drawn) [Example 204, 2-butyl-1-[cyclopropyl(phenyl)methyl]-5-[4-(2-fluoro-3-methylpyridin-4-yl)benzenesulfonyl]-6-hydroxy-1,4-dihydropyrimidin-4-one] | 0.01 to 10 nM
23 | CCCCc1nc(=O)c(S(=O)(=O)c2ccc(-c3ccc(F)cc3)cn2)c(O)n1-c1c(OC)cccc1OC [Example 103, 2-butyl-1-(2,6-dimethoxyphenyl)-5-{[5-(4-fluorophenyl)pyridin-2-yl]sulfonyl}-6-hydroxy-1,4-dihydropyrimidin-4-one] | 0.01 to 10 nM
24 | CCCCc1nc(=O)c(S(=O)(=O)c2ccc(-c3ccc(C4CC4)nc3)cc2)c(O)n1-c1c(OC)cccc1OC [Example 41, 2-butyl-5-[4-(6-cyclopropylpyridin-3-yl)benzenesulfonyl]-1-(2,6-dimethoxyphenyl)-6-hydroxy-1,4-dihydropyrimidin-4-one] | 0.01 to 10 nM
25 | CCCCc1nc(=O)c(S(=O)(=O)c2ccc(-c3cncc(F)c3)cc2)c(O)n1[C@@H](CC)c1cccc(OC)c1 [Example 145, 2-butyl-5-[4-(5-fluoropyridin-3-yl)benzenesulfonyl]-6-hydroxy-1-[(1S)-1-(3-methoxyphenyl)propyl]-1,4-dihydropyrimidin-4-one] | 0.01 to 10 nM
26 | CCCCc1nc(=O)c(S(=O)(=O)c2ccc(-c3ccnc(F)c3C)cc2)c(O)n1[C@@H](CC)c1cccc(Cl)c1 [Example 194, 2-butyl-1-[(1S)-1-(3-chlorophenyl)propyl]-5-[4-(2-fluoro-3-methylpyridin-4-yl)benzenesulfonyl]-6-hydroxy-1,4-dihydropyrimidin-4-one] | 0.01 to 10 nM
27 | CCCCc1nc(=O)c(S(=O)(=O)c2ccc(-c3ccncc3C)cc2)c(O)n1[C@H]1CCc2ccccc21 [Example 155, 2-butyl-1-[(1S)-2,3-dihydro-1H-inden-1-yl]-6-hydroxy-5-[4-(3-methylpyridin-4-yl)benzenesulfonyl]-1,4-dihydropyrimidin-4-one] | 0.01 to 10 nM
